The source of these data is US5925769A, “Acetylenic 1,5-diarylpyrazoles as antiinflammatory agents” (Ortho Pharmaceutical, Corp., priority 1998, dated 1999).

Test [1] has as its target T1, 5-LO (Rattus norvegicus, UniProt P12527).
T1 construct: the supernatant was saved as the source of enzymes; endogenous in cells; host or cells: RBL-1 (rat basophilic leukemia) cells
T1 sequence (P12527 1-673): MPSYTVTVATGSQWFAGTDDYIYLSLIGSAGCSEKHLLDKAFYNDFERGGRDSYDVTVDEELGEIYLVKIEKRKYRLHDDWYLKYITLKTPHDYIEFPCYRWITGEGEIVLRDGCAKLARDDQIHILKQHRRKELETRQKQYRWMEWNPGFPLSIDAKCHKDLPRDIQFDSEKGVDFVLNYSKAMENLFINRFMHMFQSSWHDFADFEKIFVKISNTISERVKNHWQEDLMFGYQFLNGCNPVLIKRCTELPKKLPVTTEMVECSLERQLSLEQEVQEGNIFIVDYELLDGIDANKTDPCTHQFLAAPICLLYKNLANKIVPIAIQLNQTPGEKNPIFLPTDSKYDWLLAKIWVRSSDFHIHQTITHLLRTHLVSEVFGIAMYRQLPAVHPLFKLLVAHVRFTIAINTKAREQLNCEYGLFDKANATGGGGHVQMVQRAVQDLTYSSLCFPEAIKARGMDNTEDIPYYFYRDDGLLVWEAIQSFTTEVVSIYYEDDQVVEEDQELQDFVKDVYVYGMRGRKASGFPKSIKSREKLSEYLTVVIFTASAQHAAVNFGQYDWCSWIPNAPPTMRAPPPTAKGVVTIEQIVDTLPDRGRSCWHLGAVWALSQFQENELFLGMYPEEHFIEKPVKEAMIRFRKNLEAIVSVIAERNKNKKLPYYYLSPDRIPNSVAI
The test can be described thus: Procedure III: 5-LO (5-HETE) in intact RBL-1 cells. Format: cell-based. To be noted: calcium ionophore A 23187, read-out: Proc. III 5-LO IC50. As to the method:
(§1) The IC50 was determined using a curve fit in Cricket Graph (Computer Associated), which provided the equation of the regressed line used in the calculation.
(§2) In Procedure III, the ability to inhibit 5-LO and CO in intact RBL-1 cells was also evaluated. […] Cells were collected by centrifugation, washed once in HBSS, and resuspended at a concentration of 1×10^5 cells/mL. Cells were incubated in the presence of vehicle or drug then centrifuged at 800×g for 10 minutes at 4° C. The supernatant was removed by aspiration and the cells were resuspended in 0.5 mL of HBSS. […] The conversion of AA to 5-LO products was initiated by the addition of 10 μL (50 μCi) of 1-^14 C-AA. Products were isolated by acidification and extraction, followed by thin layer chromatography analysis as described above. Radioactive areas corresponding to authentic 5-LO (5-HETE) and CO (PgD2) products were quantitated by the Bioscan 2000 Imaging System and the IC50 was calculated as above.

In test [2] the target is T2, Sheep seminal vesicle (SSV) cyclooxygenase (Ovis aries, UniProt P05979).
T2 construct: Sheep seminal vesicle (SSV) cyclooxygenase (95% pure); purchased Biomol (Plymouth Meeting, PA); host or cells: sheep seminal vesicle
T2 sequence (P05979 25-600): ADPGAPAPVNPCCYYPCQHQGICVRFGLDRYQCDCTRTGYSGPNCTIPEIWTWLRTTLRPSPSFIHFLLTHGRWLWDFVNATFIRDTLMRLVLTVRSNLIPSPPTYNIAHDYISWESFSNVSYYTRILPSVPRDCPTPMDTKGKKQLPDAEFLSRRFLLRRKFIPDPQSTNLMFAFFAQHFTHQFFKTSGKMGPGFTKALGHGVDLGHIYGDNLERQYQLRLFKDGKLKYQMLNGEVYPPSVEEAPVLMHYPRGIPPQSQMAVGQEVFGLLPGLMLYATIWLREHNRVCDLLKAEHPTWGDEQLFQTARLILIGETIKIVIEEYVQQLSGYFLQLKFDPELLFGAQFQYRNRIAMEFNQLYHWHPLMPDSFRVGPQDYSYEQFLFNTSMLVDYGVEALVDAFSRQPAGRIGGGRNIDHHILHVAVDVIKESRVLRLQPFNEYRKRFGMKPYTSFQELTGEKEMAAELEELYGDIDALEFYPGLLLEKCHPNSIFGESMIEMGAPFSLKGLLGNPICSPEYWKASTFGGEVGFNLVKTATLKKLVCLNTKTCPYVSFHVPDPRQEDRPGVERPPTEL
The test is described as follows: Procedure I: inhibition of sheep seminal vesicle (SSV) cyclooxygenase. In kind it is biochemical. To be noted: SSV cyclooxygenase; for inhibition at 10 µM: 20 min, @ 10 .quadrature.M, read-out: Proc. I % inhibition; for pIC50: read-out: Proc. I IC50. As to the method:
Procedure I was used to determine the ability of the compounds to inhibit cyclooxygenase. […] The enzyme was divided into 200 μL aliquots, snap frozen with liquid N2, and stored at -70° C. until immediately prior to use. […] The tubes were mixed on a vortex shaker, preincubated for 5 min at 37° C. prior to the initiation of the reaction. The reaction was started by the addition of [^14 C]-arachidonic acid (1-^14 C-AA, Amersham, Arlington Heights, Ill.) in 10 μL of methanol. Tubes were again vortexed and incubated in a water bath for 20 minutes after which the tubes were removed and the reaction stopped by acidification with the addition of 1 mL 2M formic acid. Lipophilic products were extracted with 3 mL chloroform and concentrated to dryness under N2. Each pellet was reconstituted with 40 μL of chloroform and spotted on a Whatman Silicon thin-layer chromatography plate and developed in a chromatography tank containing A-9 solvent (11:5:2:1 V:V:VV, ethyl acetate:trimethyl-pentane:acetic acid:double distilled-H2 O). Radioactive cyclooxygenase products (prostaglandin D2, prostaglandin E2, etc.) were measured using a Bioscan System 200 Imaging Scanner. Inhibition of enzyme activity was calculated by comparing the areas under the curve produced in the presence or absence of test compound.

Test [3] has as its target T3, CO (Rattus norvegicus, UniProt Q63921).
T3 construct: the supernatant was saved as the source of enzymes; endogenous in cells; host or cells: RBL-1 (rat basophilic leukemia) cells
T3 sequence (Q63921 27-602): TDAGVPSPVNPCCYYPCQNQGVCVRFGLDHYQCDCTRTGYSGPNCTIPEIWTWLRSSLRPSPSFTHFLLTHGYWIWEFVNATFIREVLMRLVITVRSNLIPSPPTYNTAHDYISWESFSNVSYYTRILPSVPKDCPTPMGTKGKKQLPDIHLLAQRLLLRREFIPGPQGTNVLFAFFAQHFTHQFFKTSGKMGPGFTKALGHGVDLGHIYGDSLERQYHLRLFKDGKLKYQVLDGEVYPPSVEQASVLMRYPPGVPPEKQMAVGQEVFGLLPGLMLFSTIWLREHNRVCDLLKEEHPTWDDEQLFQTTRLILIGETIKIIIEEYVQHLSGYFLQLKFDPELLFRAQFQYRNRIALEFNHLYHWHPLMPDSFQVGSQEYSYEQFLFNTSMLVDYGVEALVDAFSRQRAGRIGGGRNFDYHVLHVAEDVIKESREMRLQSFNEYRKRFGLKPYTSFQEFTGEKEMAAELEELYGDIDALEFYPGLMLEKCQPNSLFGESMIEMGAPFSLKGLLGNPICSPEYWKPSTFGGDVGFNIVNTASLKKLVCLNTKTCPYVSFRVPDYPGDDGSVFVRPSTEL
The test can be described thus: Procedure III: CO (PgD2) in intact RBL-1 cells. Format: cell-based. The following applies: calcium ionophore A 23187, read-out: Proc. III CO IC50. The protocol:
as §1, §2

In test [4] the target is T3, CO. The test is described as follows: Procedure II: CO activity in broken RBL-1 cells (homogenate supernatant). In kind it is biochemical. The following applies: RBL-1 broken cell supernatant; for pIC50: read-out: Proc. II CO IC50; for inhibition at 10 µM: 20 min, @ 10 .quadrature.M, read-out: Proc. II CO % inhibition. As to the method:
(§3) Procedure II was used to assess LO and CO activity. Rat basophilic leukemia cells (RBL-1; 5×10^7 viable cells/mL) were disrupted by homogenization on ice (four 20 sec bursts) with a Brinkman polytron. […] The homogenate was then centrifuged at 9,220×g for 48 minutes at 4° C. The pellet was discarded and the supernatant was saved as the source of enzymes. The supernatant was pre-incubated for five minutes at 37° C. in the presence of 2 mM of CaCl2 and compound or vehicle (1% DMSO). The conversion of AA into products by CO and LO was initiated by adding 10 μL (50 μCi) of 1-^14 C-AA to each tube and incubated at 37° C. for 20 minutes. The reaction was stopped by adjusting the pH of each sample to 3 to 3.5 with 2M formic acid. Samples were extracted with three volumes of chloroform to isolate the products of 5-LO formed during the reaction. Fractions were dried under nitrogen, then resuspended in 40 μL of chloroform and spotted onto silica gel HL plates. The plates were developed in A-9 solvent. The dried plates were analyzed using a Bioscan Imaging TLC scanner to determine the percentage of radiolabelled AA converted to 5-HETE (LO product) in each sample. The percentage of inhibition was calculated by:
(§4) [1-(5-HETE test)]/5-HETE control×100=% inhibition
as §1

Test [5] addresses T1, 5-LO. The test can be described thus: Procedure II: 5-LO activity (5-HETE) in broken RBL-1 cells (homogenate supernatant). Format: biochemical. The following applies: RBL-1 broken cell supernatant; for pIC50: read-out: Proc. II 5-LO IC50; for inhibition at 10 µM: 20 min, @ 10 .quadrature.M, read-out: Proc. II 5-LO % inhibition. As to the method: as §3, §4, §1

pIC50: −log10 of the molar value.

As a reminder, the pIC50 is −log10 of the IC50, conventionally taken in molar units. For orientation: inhibition means the drop in the measured response relative to a control, in per cent.

Consider `COc1ccc(-n2nc(C#CC(C)N(O)C(N)=O)cc2-c2ccc(C)cc2)cc1` (stereo not drawn) [Cpd 2, N-hydroxy-N-(1-(1-(4-methoxyphenyl)-5-(4-methylphenyl)pyrazol-3-yl)-1-butyn-3-yl)urea], for which the pIC50 was 5.11 in test [1], 5.85 in test [3], 5.03 in test [4] and 6.43 in test [5]. Moreover, the inhibition at 10 µM in test [2] turned out to be 10%.

With `CCC(C#Cc1cc(-c2ccc(C)cc2)n(-c2ccc(OC)cc2)n1)N(O)C(N)=O` (stereo not drawn) [Cpd 3], the pIC50 in test [1] is 4.67; in test [3], 5.68; in test [4] it was 4.80; in test [5], 7.15. In test [2], the inhibition at 10 µM was 22%.

`COc1ccc(-n2nc(C#CC(C(C)C)N(O)C(N)=O)cc2-c2ccc(C)cc2)cc1` (stereo not drawn) [Cpd 4]: the pIC50 is 5.08 in test [1], 5.92 in test [3], 5.34 in test [4] and 6.62 in test [5]. Besides, the inhibition at 10 µM in test [2] was 29%.

For the compound `COc1ccc(-n2nc(C#CC(C)N(O)C(N)=O)cc2-c2ccc(Cl)cc2)cc1` (stereo not drawn) [Cpd 6], the pIC50 in test [1] was 5.46; in test [2] it was 4.49; in test [3] it was 5.21; in test [5], 8.00. Besides, in test [4], the inhibition at 10 µM was determined as 0%.

On to `COc1ccc(-n2nc(C#CC(C)N(O)C(=O)N3CCOCC3)cc2-c2ccc(Cl)cc2)cc1` (stereo not drawn) [Cpd 10], for which the results for the pIC50 in test [1] and in test [3] were 4.92 and 5.80, respectively. Besides, the inhibition at 10 µM in test [2] worked out at 14%; in test [4], 58%; in test [5] it was 81%.

Regarding `CCC(C#Cc1cc(-c2ccc(Cl)cc2)n(-c2ccc(OC)cc2)n1)N(O)C(N)=O` (stereo not drawn) [Cpd 11], the pIC50 was 5.66 in test [1] and 4.15 in test [3]. The inhibition at 10 µM in test [2] turned out to be 0%; in test [4] it was 30%; in test [5], 91%.

On to `COc1ccc(-n2nc(C#CC(C(C)C)N(O)C(N)=O)cc2-c2ccc(Cl)cc2)cc1` (stereo not drawn) [Cpd 12], for which the negative-log IC50 (pIC50) in test [1] was 5.41; in test [3], 4.84. The inhibition at 10 µM in test [2] is 38%; in test [4] it was 0%; in test [5], 90%.

`COc1ccc(-n2nc(C#CCN(O)C(C)=O)cc2-c2ccc(C)cc2)cc1` [Cpd 13, N-acetyl-N-(1-(1-(4-methoxyphenyl)-5-(4-methylphenyl)pyrazol-3-yl)-1-propyn-3-yl)hydroxylamine]: the figures for the negative-log IC50 (pIC50) in test [1] and in test [3] were 5.14 and 7.52, respectively. Moreover, the results for the inhibition at 10 µM in test [2], in test [4] and in test [5] were 74%, 100% and 100%, respectively.

In the case of `CCC(=O)N(O)CC#Cc1cc(-c2ccc(C)cc2)n(-c2ccc(OC)cc2)n1` [Cpd 14], the pIC50 in test [1] is 5.52; in test [3], 7.22. Moreover, the inhibition at 10 µM in test [2] is 79%; in test [4], 100%; in test [5], 100%.

Turning to `COc1ccc(-n2nc(C#CCN(O)C(=O)c3ccncc3)cc2-c2ccc(C)cc2)cc1` [Cpd 16], the negative-log IC50 (pIC50) in test [1] was 4.58; in test [3], 5.26. Moreover, the inhibition at 10 µM in test [2] stood at 17%; in test [4] it was 66%; in test [5], 89%.

On to `COC(=O)N(O)CC#Cc1cc(-c2ccc(C)cc2)n(-c2ccc(OC)cc2)n1` [Cpd 17, N-methoxycarbonyl-N-(1-(1-(4-methoxyphenyl)-5-(4-methylphenyl)pyrazol-3-yl)-1-propyn-3-yl)hydroxylamine], for which the negative-log IC50 (pIC50) in test [1] was 5.06; in test [3], 6.55. Also, the inhibition at 10 µM in test [2] was 74%; in test [4], 100%; in test [5], 100%.

On to `COc1ccc(-n2nc(C#CC(C)N(O)C(C)=O)cc2-c2ccc(C)cc2)cc1` (stereo not drawn) [Cpd 18, N-Acetyl-N-(1-(1-(4-methoxyphenyl)-5-(4-methylphenyl)pyrazol-3-yl)-1-butyn-3-yl)hydroxylamine], for which the negative-log IC50 (pIC50) in test [1] is 4.88; in test [2], 6.51; in test [3], 6.96; in test [4], 8.00; in test [5], 7.10.
